These results are taken from publication PMC10263210, “Design, Synthesis and Biological Evaluation of Novel MDH Inhibitors Targeting Tumor Microenvironment” (Pharmaceuticals, 2023).

One experiment has as its target T1, human recombinant MDH2 (Homo sapiens, UniProt P40926).
T1 construct: purchased BioVision
T1 sequence (P40926 25-338): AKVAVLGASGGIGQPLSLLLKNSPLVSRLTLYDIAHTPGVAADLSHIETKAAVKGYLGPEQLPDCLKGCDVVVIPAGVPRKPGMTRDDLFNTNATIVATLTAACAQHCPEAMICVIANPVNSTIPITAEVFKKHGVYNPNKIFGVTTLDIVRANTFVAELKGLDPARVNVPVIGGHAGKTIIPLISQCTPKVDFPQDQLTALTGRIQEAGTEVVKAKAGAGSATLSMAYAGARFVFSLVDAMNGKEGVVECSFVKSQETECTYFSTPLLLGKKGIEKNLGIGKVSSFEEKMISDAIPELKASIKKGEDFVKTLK
Kind of experiment: MDH2 enzyme activity assay (oxaloacetate-dependent NADH oxidation). To be noted: means of three experiments. It is filed as biochemical. The source says:
To develop the dual inhibitors of MDH1 and MDH2, we screened the newly synthesized LW1497 derivatives using MDH and MDH2 enzyme assays. LW1497 was used as the positive control for the MDH1/2 dual inhibitor. We evaluated the ability of the synthesized compounds to inhibit human recombinant MDH1 and MDH2 enzymatic activity using an oxaloacetate-dependent NADH oxidation assay (Table 1, Table 2, Table 3, Table 4, Table 5 and Table 6). Our SAR optimization strategy focused on four different parts of LW1497: (A) the introduction of various groups at different positions on the amide phenyl ring; (B) the replacement of the 3-(4-(2,4,4-trimethylpentan-2-yl) alkyl chain; (C) the alteration of the amide portion; and (D) the modification of the oxypropanamide linker portion (Figure 1).
The activities of MDH1 and MDH2 were confirmed using an oxaloacetate-dependent NADH oxidation assay. Experiments were conducted using 100 mM of potassium phosphate buffer (pH 7.4) and human recombinant MDH1 (BioVision) and MDH2 (BioVision), and the results were obtained by measuring the absorbance at 340 nm. Enzyme activity was measured using a plate reader at a wavelength of 340 nm.

The subject of a further experiment is A549 lung cancer cells. Nature of the experiment: Cell growth inhibition assay (SRB), A549. It is filed as cell-based. The note with it: Homo sapiens, means of three experiments, read-out: Cell Viability IC50 A549. How it is done:
(§1) At the same time, we investigated the effect of the compounds on the growth inhibition of A549 and H460 lung cancer cells bearing KRAS and LKB1 mutations. […] Compound 50 containing a piperidine linker was selected for further analysis.
(§2) Human lung carcinoma A549 cells were cultured in Dulbecco’s modified Eagle’s medium and H460 cells were cultured in RPMI 1640 medium containing 10% fetal bovine serum and 1% penicillin/streptomycin at 37 °C with a 5% Co2 hypoxia experimental condition. The cells were grown in the hypoxia chamber (1% O2, 94% N2, and 5% Co2 in a multigas incubator)
(§3) Cell growth inhibition was assessed using sulforhodamine B (SRB) as described in [34]. The cells were fixed with 10% formalin (Sigma-Aldrich) and stained with 0.4% SRB. Protein-bound dye was dissolved in 10 mM of Tris, and its optical density was measured at 540 nm.

Another experiment relates to H460 lung cancer cells. Kind of experiment: Cell growth inhibition assay (SRB), H460. It is filed as cell-based. The note with it: Homo sapiens, NCI-H460, means of three experiments, read-out: Cell Viability IC50 H460. How it is done: as §1, §2, §3
For experiment [1], the system named is A549 cells. Nature of the experiment: Intracellular ATP content (ATPlite). To be noted: 6 h. It is filed as cell-based, human. How it is done:
Malate transported to the interior of the mitochondria is oxidized to OAA by mitochondrial MDH2, thereby generating NADH, which then enters the ETC to produce ATP. Because inhibition of MAS is expected to reduce ATP production in cancer cells, the total amount of ATP was measured after treatment with compound 50.
A549 cells (1 × 10^4 cells/96-well plate) were incubated for 6 h with or without drugs. After removing the supernatant, an ATP assay was performed using ATPlite (PerkinElmer, Waltham, MA, USA) according to the manufacturer’s instructions. ATP content was measured using a luminometer (Synergy HTX multimode reader, Winoski, VT, USA).
(In general: ATP-based viability assays read luminescence as a measure of living cells.)

Experiment [2] has as its system A549 cells. Kind of experiment: Real-time ATP production rate (XF analyzer). It is filed as cell-based, human. From the text: We then examined whether the ATP production pattern was altered by drug treatment using an XF analyzer for real-time metabolic analysis (Figure 5).
The test system of the next experiment is HIF-1α. Kind of experiment: Western blot of HIF-1α and its target genes under hypoxia. It is filed as cell-based, human. To be noted: A549 cells, hypoxia. How it is done:
Previously, it has been reported that the inhibition of MDH1 or MDH2 enzymes is related to HIF-1a expression levels. We investigated whether compound 50 decreases HIF-1α accumulation in A549 cells (Figure 6). […] Additionally, we confirmed that compound 50 suppressed the protein expression of HIF-1α target genes, such as GLUT1 and PDK1 (Figure 6), as clearly shown by the Western blot assay.
as §2
(§4) The cells were lysed with RIPA buffer (Millipore, Billerica, MA, USA) containing a protease inhibitor cocktail (Roche, Basel, Switzerland) for 15 min at 4 °C and centrifuged at 12,000 rpm for 10 min. The lysates were quantified using a protein assay kit (Bio-Rad, Hercules, CA, USA). The lysates were subjected to an SDS-PAGE analysis and transferred to PVDF membranes (Millipore, Billerica, MA, USA). The proteins were identified using the appropriate antibodies: HIF-1α (BD Transduction Laboratories, San Diego, CA, USA), pyruvate dehydrogenase kinase 1 (PDK1) (Cell Signaling, Danvers, MA, USA), GLUT1 and β-action (Santa Cruz Biotechnology, Danvers, MA, USA), and CD73 (Proteintech, Rosemont, IL, USA).
On the technique in general: In western blotting, separated proteins are transferred to a membrane and probed.

In experiment [3] the test system is CD73. Kind of experiment: Western blot of CD73 expression under hypoxia. It is filed as cell-based, human. To be noted: A549 cells. The method, then:
(§5) It has been reported that CD73 expression is induced by HIF-1α under hypoxic conditions. Therefore, we examined whether the expression of CD73 is inhibited by compound 50 under hypoxia in A549 lung cancer cells. […] To confirm the effect of compound 50 on CD73 expression, we performed ELISA for CD73.
as §2, §4

Experiment [4] deals with CD73. Kind of experiment: CD73 ELISA. It is filed as cell-based, human. The note with it: A549 cells; for CD73 level (%): hypoxic conditions, 0 μM = 100. The method, then:
as §5
The prepared samples were incubated with the same amount of antibody cocktail for 1 h at room temperature and then washed three times with PT buffer. After washing, the plates were developed by adding 100 µL of TMB development solution, and the reaction was stopped by adding 100 µL of stop solution. The amount of CD73 was quantitatively measured according to the instructions on the Human CD73 Simplestep ELISA kit (Abcam, Cambridge, UK).
In general terms: An ELISA detects its analyte on a solid surface through an enzyme-linked reagent.

The nature of experiment [5]: Lactate consumption in treated cells. It is filed as cell-based. To be noted: cells treated with compound. The source says:
In contrast, high aerobic glycolysis distinguishes cancer cells from normal cells and has been exploited to detect tumors in vivo. […] Cancer cells consume the secreted lactate to produce ATP through the TCA cycle and oxidative phosphorylation processes. Some cancer cells use lactate as a substrate for TCA intermediates via monocarboxylate transporters (MCT1/4) as well as for ATP production. Lactate can be converted to pyruvate using lactate dehydrogenase (LDH) and can be further converted to acetyl-CoA by […] for fatty acid synthesis.

In general, IC50 refers to the midpoint of a concentration-inhibition curve. With `CC(C)(C)CC(C)(C)c1ccc(N2CCC(C(=O)Nc3cccc(OC(F)(F)F)c3)CC2)cc1` [Compound 50, N-(3-(Trifluoromethoxy)phenyl)-1-(4-(2,4,4-trimethylpentan-2-yl)phenyl)piperidine-4-carboxamide], the IC50 at human recombinant MDH2 was 2.24 ± 0.09 µM; in the experiment with A549 lung cancer cells, 3.94 ± 0.04 µM; with H460 lung cancer cells, 3.67 ± 0.06 µM. In addition, in the experiment with A549 cells [1], the ATP level entry is given as “reduced ATP level”. Besides, the “total ATP decrease” value with A549 cells [2] (5 µM) was 14.6%; in the experiment on A549 cells [2] (10 µM), 28.6%. Further, the HIF-1α accumulation entry in the experiment with HIF-1α is reported as “decreased HIF-1α accumulation in a dose-dependent manner”. In addition, the “protein expression of HIF-1α target genes GLUT1 and PDK1” value with HIF-1α (Western blot) was “suppressed”. Further, in the experiment on CD73 [3], the “CD73 expression increased by HIF-1α” value is on record as “significantly decreased”. Moreover, in the experiment on CD73 [4] (ELISA), the CD73 levels result is “reduced CD73 levels in A549 cells in a dose-dependent manner”. The results for the “CD73 level (%)” value in the experiment with CD73 [4] (2.5 μM), with CD73 [4] (5.0 μM) and in the experiment on CD73 [4] (10 μM) were 90%, 84% and 68%, respectively. Besides, in experiment [5], the Lactate consumption result is recorded as “did not change significantly”.
